US20240141445A1, “NOVEL METHOD FOR POOLED INTRON TAGGING FOR REAL TIME DRUG SCREENING” (CeMM - Forschungszentrum für Molekulare Medizin GmbH, priority 2019, published 2024)

System: GFP-tagged proteins in HAP1 cells
Experiment: GFP intron-tagged cell pool / arrayed clones, time-lapse imaging of protein levels and localization
Assay type: cell-based
Procedure: For the generation of lentiviral particles, HEK293T cells were transiently transfected with the intron-targeting library and packaging plasmids psPAX2, pMD2.G using PEI transfection. After 12 h the media was replaced with IMDM supplemented with 10% FBS and P/S. Viral supernatant was collected 48 h after transfection and stored at −80° C. HAP1 cells were transduced with virus and selected with puromycin for three days. Multiplicity of infection (MOI) was 0.2 and transduction was done at a coverage of 500×. After puromycin selection, cells were grown for one day in media without puromycin before being seeded for transfection (8 million cells per 15 cm dish, 48 million cells in total). One day after seeding, each dish was co-transfected with 20 μg pX330 expressing Cas9-BSD and the generic sgRNA and 10 μg EGFP donor plasmid with 90 μl Turbofection in 2.5 ml OptiMEM as described by the manufacturer. Transfection efficiency was approximately 10% as determined by a transfection done in parallel with pX330 Cas9-mCherry and the EGFP donor plasmid using the same ratio. The next day, cells were subjected to a transient selection using Blasticidin (10 μg/ml) for 24 h. After selection, cells were maintained in full media without Blasticidin and sorted five days after transfection by flow cytometry using a Sony Cell Sorter SH800ZD. 0.03% cells were GFP-positive and in total 24,300 of those GFP-positive cells were sorted and the cell population was expanded for 7 days before DNA was isolated to determine sgRNA abundance in the cell population.
To obtain clonal cell lines, cells were seeded at a concentration of 0.7 cells per well in 96-well cell culture plates. After 9 days of clonal expansion, 768 colonies were harvested using trypsin and cell suspensions were transferred in equal amounts to eight 96-well imaging plates (Perkin Elmer CellCarrier Ultra) and eight corresponding 96-well cell culture plates. After 24 h, cells on the imaging plates were imaged on a Perkin Elmer Opera Phenix High Content Screening System (5 fields of view per well, 63× water-immersion objective, confocal mode, excitation: 488 nm, […], 700 ms). Images were processed using Cell Profiler. To identify the intron-targeting sgRNAs expressed in imaged cells, multiplexed amplicon sequencing of the sgRNA regions was performed in the corresponding clones on the eight 96-well cell culture plates. Cells were lysed and cell lysates were used for PCR to amplify the sgRNA region in each clone using barcoded primers flanking the sgRNA region (36 different 5-mers added to the 5′end of the forward primer and 24 different 5-mers added to the 5′end of the reverse primer, 768 of all possible 864 combinations were used). PCR reactions were pooled and column purified before being send for sequencing by a commercial sequencing service. NGS reads were demultiplexed using Cutadapt (see Martin, M. EMBnet. journal, [S.I.], v. 17, n. 1, p. pp. 10-12, may 2011) and sgRNA read counts for each individual well were obtained using MAGeCK (see, Li (2014) Genome Biol 15, 554 (2014). For further analysis clones were excluded, for which either no cells in any of the 5 fields of view that were imaged were observed, no sequencing reads for the corresponding well were observed or for which polyclonal cell populations as determined by imaging or detection of multiple sgRNAs per well were observed. Using that strategy, images of 335 clones were obtained for which the expressed intron-targeting sgRNA corresponding to the tagged protein could be identified.
Live cell imaging was performed on a PerkinElmer Opera Phenix microscope with excitation laser 488 nm, and emission filter 500-550 nm, 700 ms.
Identification of the expressed sgRNAs by in situ sequencing was performed by following and modifying published protocols, see, e.g., Feldman (2019) loc. cit; Ke (2013) Nat Methods 10, 857-60; and Larsson (2010) Nat Methods 7, 395-7. […]

[1] = clonal cell line, 1 μM (FIG. 10)

| Compound | PADI1 protein level (1 μM (FIG. 10)) | RUVBL1 protein level (1 μM (FIG. 10)) | nuclear foci of GFP-tagged DNMT1 (1 μM (FIG. 10)) | nuclear signal of GFP-tagged NUDT21 (1 μM (FIG. 10)) | nuclear signal of GFP-tagged TPI1 (1 μM (FIG. 10)) | nuclear signal of GFP-tagged transcription factor DR1 (1 μM (FIG. 10)) | localization of GFP-tagged ACLY (24 h treatment, 1 μM (FIG. 10)) | localization of GFP-tagged RPA1 [1] | localization of GFP-tagged RPA2 [1] | localization of GFP-tagged AKAP8 (cell pool, FIG. 6e) | localization of GFP-tagged FUBP3 (cell pool, FIG. 6e) | localization of GFP-tagged MEAF1 (cell pool, FIG. 6e) | localization of GFP-tagged SFPQ (cell pool, FIG. 6e) | nuclear intensity of GFP-tagged UNG (cell pool, FIG. 6e) |
| --- | --- | --- | --- | --- | --- | --- | --- | --- | --- | --- | --- | --- | --- | --- |
| CN(Cc1cnc2nc(N)nc(N)c2n1)c1ccc(C(=O)N[C@@H](CCC(=O)O)C(=O)O)cc1 [MTX, methotrexate] | decreases | decreases | disappearance of nuclear DNMT1 foci | gain of nuclear signal | gain of nuclear signal | gain of nuclear signal | increased nuclear localization | formation of nuclear foci | formation of nuclear foci |  |  |  |  |  |
| Cc1sc2c(c1C)C(c1ccc(Cl)cc1)=N[C@@H](CC(=O)NCCCCCCCCNC(=O)COc1cccc3c1C(=O)N(C1CCC(=O)NC1=O)C3=O)c1nnc(C)n1-2 (some centres unmarked) [dBET6] |  |  |  |  |  |  |  |  |  | gain of nuclear foci | loss of subnuclear localization patterns | loss of subnuclear localization patterns | gain of nuclear foci | loss of nuclear intensity |
